Values quoted from earlier work as cited in patent US20050065132A1, “2-alkylidene-19-nor-vitamin D derivatives for the treatment or prevention of a secon hip fracture” (Pfizer Inc, priority 2003, published 2005).
Like-named read-outs stand apart in the source and are kept apart here.

Columns and labels:
[1] = tested on: intestinal calcium transport
[2] = tested on: serum calcium (bone calcium mobilization); details: given for 7 days in a chronic mode, 130 and 260 pmol/day
[3] = 130 or 260 pmol dose, chronic 7 days

| SMILES | change in intestinal calcium transport ([1]; 260 pmol/day, only dose tested) | change in intestinal calcium transport [1, 3] | bone calcium mobilization [2] |
| --- | --- | --- | --- |
| C=C1/C(=C\C=C2/CCC[C@]3(C)[C@@H]([C@H](C)CCCC(C)(C)O)CC[C@@H]23)C[C@@H](O)C[C@@H]1O [1,25-(OH)2D3, 1,25-dihydroxyvitamin D3, reference compound] | expected elevation | – | – |
| C=C1[C@H](O)CC(=C/C=C2\CCC[C@]3(C)[C@@H]([C@@H](C)CCCC(C)(C)O)CC[C@@H]23)C[C@H]1O [2-Methylene-19-Nor-20S-1,25-(OH)2D3, (20S)-1α,25-dihydroxy-2-methylene-19-nor-vitamin D3] | – | no significant change | most potent compound tested |
| C=C1[C@H](O)CC(=C/C=C2\CCC[C@]3(C)[C@@H]([C@H](C)CCCC(C)(C)O)CC[C@@H]23)C[C@H]1O [2-Methylene-19-Nor-1,25-(OH)2D3, 1α,25-dihydroxy-2-methylene-19-nor-vitamin D3] | – | no intestinal calcium transport activity | extremely strong |
